Results reported in patent publication US20060069132A1, “Azolecarboxamide herbicides” (priority 2004, published 2006).

What was measured:
wheat = test: Test B postemergence herbicide test; assay type: in vivo, Triticum aestivum; design: key to Wheat plant response rating: 0 = no effect, 100 = complete control
Outline: (§1)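 Read-out: visual comparison with controls, scored 0 to 100, where 100 means complete control and 0 no effect. Formulated chemicals were applied postemergence to plants 2–18 cm tall (1- to 4-leaf), or to flooded-paddy plants at the 2-leaf stage, then held 13 to 15 days under glass.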

giant foxtail = test: Test B pre-/postemergence herbicide test; assay type: in vivo, Setaria faberi; settings: for Plant response rating (0 to 100 scale), Foxtail, Giant: 0 is no effect
Outline: (§2)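 Pre: seeds sown, then sprayed. Post: 1–4-leaf plants (2–18 cm) sprayed at the same time. Paddy: flooded, treated at 2-leaf stage. Formulation: non-phytotoxic solvent with surfactant. Greenhouse 13–15 days; visual 0–100 score relative to controls.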

ducksalad = test: Test B flooded paddy test; assay type: in vivo, Heteranthera limosa; settings: 1000 g ai/ha, scale 0 to 100 (0 no effect, 100 complete control)
Outline: (§3)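 Paddy species grown to the 2-leaf stage under flooding; blackgrass sprayed postemergence at 2–18 cm (1- to 4-leaf stage). Plants kept in a greenhouse for 13 to 15 days, then visually rated against controls on 0 (no effect) to 100 (complete control).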

lambsquarters = test: Test B pre-/postemergence herbicide test; assay type: in vivo, Chenopodium album; settings: for Plant response rating (0 to 100 scale), Lambsquarters: 0 is no effect, 100 is complete control
Outline: as §2

barnyardgrass = test: Test B pre-/postemergence herbicide test; assay type: in vivo, Echinochloa crus-galli; settings: for Plant response rating (0 to 100 scale), Barnyardgrass: 0 is no effect
Outline: (§4)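 Test chemicals in a non-phytotoxic solvent mixture with surfactant were applied preemergence to seeded species and postemergence to plants 2-18 cm tall (1- to 4-leaf stage); rice and barnyardgrass were also tested in a flooded paddy at the 2-leaf stage. Visual rating versus controls after 13-15 days in greenhouse, scale 0 (no effect) to 100 (complete control).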

velvetleaf = test: Test B pre-/postemergence herbicide test; assay type: in vivo, Abutilon theophrasti; settings: for Plant response rating (0 to 100 scale), Velvetleaf: 0 is no effect, 100 is complete control
Outline: as §2

rice = test: Test B flooded paddy test; assay type: in vivo, Oryza sativa; settings: 1000 g ai/ha, scale 0 to 100 (0 no effect, 100 complete control)
Outline: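 Plants grow to 1- to 4-leaf stage (2–18 cm) for postemergence spraying, or to 2-leaf stage for the paddy test. Formulated compound is applied. Greenhouse holding lasts 13–15 days. Response is scored visually relative to controls, 0 no effect to 100 complete control; a dash means no result.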

[1] = tested on: small flower umbrella sedge; test: Test B flooded paddy test; assay type: in vivo, Cyperus difformis; settings: 1000 g ai/ha, scale 0 to 100 (0 no effect, 100 complete control)
Outline: as §3

corn = test: Test B pre-/postemergence herbicide test; assay type: in vivo, Zea mays; settings: for Plant response rating (0 to 100 scale), Corn: 0 is no effect
Outline: as §2

wild oat = test: Test B postemergence herbicide test; assay type: in vivo, Avena fatua
Outline: as §1

pigweed = test: Test B pre-/postemergence herbicide test; assay type: in vivo, Amaranthus retroflexus; settings: for Plant response rating (0 to 100 scale), Pigweed: 0 is no effect, 100 is complete control
Outline: as §2

Surinam grass = test: Test B pre-/postemergence herbicide test; assay type: in vivo, Urochloa decumbens; settings: for Plant response rating (0 to 100 scale), Surinam Grass: 0 is no effect, 100 is complete control
Outline: as §2

large crabgrass = test: Test B pre-/postemergence herbicide test; assay type: in vivo, Digitaria sanguinalis; settings: for Plant response rating (0 to 100 scale), Crabgrass, Large: 0 is no effect
Outline: as §2

blackgrass = test: Test B postemergence herbicide test; assay type: in vivo, Alopecurus myosuroides
Outline: as §3

cocklebur = test: Test B pre-/postemergence herbicide test; assay type: in vivo, Xanthium strumarium; settings: for Plant response rating (0 to 100 scale), Cocklebur: 0 is no effect
Outline: as §4

[2] = postemergence, 125 g ai/ha, visual rating, scale 0 (no effect) to 100 (complete control)
[3] = postemergence, 500 g ai/ha, visual rating, scale 0 (no effect) to 100 (complete control)
[4] = 125 g ai/ha, 0 = no effect, 100 = complete control, preemergence
[5] = 500 g ai/ha, visual rating 0-100, 0 no effect, 100 complete control, preemergence
[6] = 125 g ai/ha, visual rating, scale 0 (no effect) to 100 (complete control), postemergence
[7] = 500 g ai/ha, scale 0 to 100, 0 no effect, 100 complete control, preemergence
[8] = Postemergence, 500 g ai/ha, scale 0 (no effect) to 100 (complete control)
[9] = 125 g ai/ha, 100 is complete control, preemergence
[10] = postemergence, 500 g ai/ha, scale 0 to 100, 0 is no effect, 100 is complete control
[11] = postemergence, 125 g ai/ha, scale 0 to 100

SMILES: CCc1nn(C(C)(C)C)cc1C(=O)Nc1cccc(C(C)=NO)c1 [Compound 188]
- Wheat plant response rating (wheat; [2]): 0
- Wheat plant response rating (wheat; [3]): 10
- Foxtail, Giant plant response rating (0 to 100 scale) (giant foxtail; [4]): 50
- Plant response rating, Foxtail, Giant (giant foxtail; [5]): 100
- Foxtail, Giant plant response rating (giant foxtail; [2]): 10
- Foxtail, Giant plant response rating (giant foxtail; [3]): 10
- Ducksalad plant response rating (ducksalad; visual rating, 13 to 15 days): 80
- Lambsquarters plant response rating (0 to 100 scale) (lambsquarters; [4]): 90
- Plant response rating, Lambsquarters (lambsquarters; [5]): 100
- Lambsquarters plant response rating (lambsquarters; [2]): 60
- Lambsquarters plant response rating (lambsquarters; [3]): 70
- Barnyardgrass plant response rating (0 to 100 scale) (barnyardgrass; [4]): 80
- Plant response rating, Barnyardgrass (barnyardgrass; [5]): 100
- Barnyardgrass plant response rating (barnyardgrass; [2]): 10
- Barnyardgrass plant response rating (barnyardgrass; [3]): 20
- Velvetleaf plant response rating (0 to 100 scale) (velvetleaf; [4]): 70
- Plant response rating, Velvetleaf (velvetleaf; [5]): 100
- Velvetleaf plant response rating (velvetleaf; [2]): 10
- Velvetleaf plant response rating (velvetleaf; [3]): 20
- Rice plant response rating (rice; visual rating, 13 to 15 days): 70
- Sedge, Umbrella plant response rating ([1]; visual rating, 13 to 15 days): 80
- Corn plant response rating (0 to 100 scale) (corn; [4]): 10
- Plant response rating, Corn (corn; [5]): 50
- Corn plant response rating (corn; [2]): 10
- Corn plant response rating (corn; [3]): 20
- Oat, Wild plant response rating (wild oat; [2]): 20
- Oat, Wild plant response rating (wild oat; [3]): 20
- Pigweed plant response rating (0 to 100 scale) (pigweed; [4]): 40
- Plant response rating, Pigweed (pigweed; [5]): 70
- Pigweed plant response rating (pigweed; [2]): 50
- Pigweed plant response rating (pigweed; [3]): 70
- Surinam Grass plant response rating (0 to 100 scale) (Surinam grass; [4]): 30
- Plant response rating, Surinam Grass (Surinam grass; [5]): 70
- Surinam Grass plant response rating (Surinam grass; [2]): 10
- Surinam Grass plant response rating (Surinam grass; [3]): 10
- Crabgrass, Large plant response rating (0 to 100 scale) (large crabgrass; [4]): 100
- Plant response rating, Crabgrass, Large (large crabgrass; [5]): 100
- Crabgrass, Large plant response rating (large crabgrass; [2]): 10
- Crabgrass, Large plant response rating (large crabgrass; [3]): 10
- Blackgrass plant response rating (blackgrass; [2]): 10
- Blackgrass plant response rating (blackgrass; [3]): 10
- Cocklebur plant response rating (0 to 100 scale) (cocklebur; [4]): 0
- Plant response rating, Cocklebur (cocklebur; [5]): 0
- Cocklebur plant response rating (cocklebur; [2]): 20
- Cocklebur plant response rating (cocklebur; [3]): 90

SMILES: C#CCNC(=O)c1cccc(NC(=O)c2nn(C(C)(C)C)nc2CC)c1 [Compound 380]
- Wheat plant response rating (wheat; [6]): 10
- Wheat plant response rating (wheat; [7]): 100
- Wheat plant response rating (wheat; [8]): 10
- Plant response rating (0 to 100 scale), Foxtail, Giant (giant foxtail; [9]): 70
- Foxtail, Giant plant response rating (giant foxtail; [6]): 0
- Foxtail, Giant plant response rating (giant foxtail; [10]): 20
- Ducksalad plant response rating (ducksalad): 80
- Plant response rating (0 to 100 scale), Lambsquarters (lambsquarters; 125 g ai/ha, preemergence): 90
- Lambsquarters plant response rating (lambsquarters; [6]): 60
- Lambsquarters plant response rating (lambsquarters; [8]): 70
- Plant response rating (0 to 100 scale), Barnyardgrass (barnyardgrass; [9]): 70
- Barnyardgrass plant response rating (barnyardgrass; [6]): 0
- Barnyardgrass plant response rating (barnyardgrass; [10]): 0
- Plant response rating (0 to 100 scale), Velvetleaf (velvetleaf; 125 g ai/ha, preemergence): 10
- Velvetleaf plant response rating (velvetleaf; [6]): 10
- Velvetleaf plant response rating (velvetleaf; [8]): 30
- Rice plant response rating (rice): 70
- Sedge, Umbrella plant response rating [1]: 70
- Plant response rating (0 to 100 scale), Corn (corn; [9]): 0
- Corn plant response rating (corn; [6]): 0
- Corn plant response rating (corn; [10]): 20
- Oat, Wild plant response rating (wild oat; [6]): 10
- Oat, Wild plant response rating (wild oat; [8]): 30
- Plant response rating (0 to 100 scale), Pigweed (pigweed; 125 g ai/ha, preemergence): 100
- Pigweed plant response rating (pigweed; [6]): 50
- Pigweed plant response rating (pigweed; [8]): 80
- Plant response rating (0 to 100 scale), Surinam Grass (Surinam grass; 125 g ai/ha, preemergence): 40
- Surinam Grass plant response rating (Surinam grass; [6]): 10
- Surinam Grass plant response rating (Surinam grass; [8]): 30
- Plant response rating (0 to 100 scale), Crabgrass, Large (large crabgrass; [9]): 90
- Crabgrass, Large plant response rating (large crabgrass; [6]): 0
- Crabgrass, Large plant response rating (large crabgrass; [10]): 10
- Blackgrass plant response rating (blackgrass; [6]): 20
- Blackgrass plant response rating (blackgrass; [10]): 40
- Plant response rating (0 to 100 scale), Cocklebur (cocklebur; [9]): 0
- Cocklebur plant response rating (cocklebur; [6]): 20
- Cocklebur plant response rating (cocklebur; [10]): 30

SMILES: CCN(CC)C(=O)c1cccc(NC(=O)c2nn(C(C)(C)C)nc2C)c1 [Compound 418]
- Wheat plant response rating (wheat; [7]): 100
- Wheat plant response rating (wheat; [8]): 20
- Wheat plant response rating (wheat; [11]): 10
- Plant response rating (0 to 100 scale), Foxtail, Giant (giant foxtail; [9]): 80
- Foxtail, Giant plant response rating (giant foxtail; [8]): 40
- Foxtail, Giant plant response rating (giant foxtail; [11]): 20
- Ducksalad plant response rating (ducksalad): 70
- Plant response rating (0 to 100 scale), Lambsquarters (lambsquarters; 125 g ai/ha, preemergence): 100
- Lambsquarters plant response rating (lambsquarters; [8]): 90
- Lambsquarters plant response rating (lambsquarters; [11]): 60
- Plant response rating (0 to 100 scale), Barnyardgrass (barnyardgrass; [9]): 70
- Barnyardgrass plant response rating (barnyardgrass; Postemergence, 125 g ai/ha, scale 0 (no effect) to 100 (complete control)): 20
- Barnyardgrass plant response rating (barnyardgrass; [8]): 20
- Plant response rating (0 to 100 scale), Velvetleaf (velvetleaf; 125 g ai/ha, preemergence): 50
- Velvetleaf plant response rating (velvetleaf; [8]): 40
- Velvetleaf plant response rating (velvetleaf; [11]): 20
- Rice plant response rating (rice): 60
- Sedge, Umbrella plant response rating [1]: 80
- Plant response rating (0 to 100 scale), Corn (corn; [9]): 10
- Corn plant response rating (corn; [8]): 20
- Corn plant response rating (corn; [11]): 20
- Oat, Wild plant response rating (wild oat; [8]): 10
- Oat, Wild plant response rating (wild oat; [11]): 0
- Plant response rating (0 to 100 scale), Pigweed (pigweed; 125 g ai/ha, preemergence): 100
- Pigweed plant response rating (pigweed; [8]): 80
- Pigweed plant response rating (pigweed; [11]): 70
- Plant response rating (0 to 100 scale), Surinam Grass (Surinam grass; 125 g ai/ha, preemergence): 90
- Surinam Grass plant response rating (Surinam grass; [8]): 20
- Surinam Grass plant response rating (Surinam grass; [11]): 20
- Plant response rating (0 to 100 scale), Crabgrass, Large (large crabgrass; [9]): 100
- Crabgrass, Large plant response rating (large crabgrass; [8]): 30
- Crabgrass, Large plant response rating (large crabgrass; [11]): 20
- Blackgrass plant response rating (blackgrass; [8]): 30
- Blackgrass plant response rating (blackgrass; [11]): 10
- Plant response rating (0 to 100 scale), Cocklebur (cocklebur; [9]): 0
- Cocklebur plant response rating (cocklebur; [8]): 30
- Cocklebur plant response rating (cocklebur; [11]): 20
